The source of these data is patent publication US20240327429A1, “[1,3]Thiazolo[4,5-d]-pyrimidon-7-ones as inhibitors of NOX4” (Boehringer Ingelheim International GmbH, priority 2023, published 2024).

The structures appear in SMILES notation.

One series has as its target T1, human NOX5 (hNOX5) (Homo sapiens, UniProt Q96PH1).
T1 construct: expressed in transfected cells; host or cells: HEK293
T1 sequence (Q96PH1 1-765): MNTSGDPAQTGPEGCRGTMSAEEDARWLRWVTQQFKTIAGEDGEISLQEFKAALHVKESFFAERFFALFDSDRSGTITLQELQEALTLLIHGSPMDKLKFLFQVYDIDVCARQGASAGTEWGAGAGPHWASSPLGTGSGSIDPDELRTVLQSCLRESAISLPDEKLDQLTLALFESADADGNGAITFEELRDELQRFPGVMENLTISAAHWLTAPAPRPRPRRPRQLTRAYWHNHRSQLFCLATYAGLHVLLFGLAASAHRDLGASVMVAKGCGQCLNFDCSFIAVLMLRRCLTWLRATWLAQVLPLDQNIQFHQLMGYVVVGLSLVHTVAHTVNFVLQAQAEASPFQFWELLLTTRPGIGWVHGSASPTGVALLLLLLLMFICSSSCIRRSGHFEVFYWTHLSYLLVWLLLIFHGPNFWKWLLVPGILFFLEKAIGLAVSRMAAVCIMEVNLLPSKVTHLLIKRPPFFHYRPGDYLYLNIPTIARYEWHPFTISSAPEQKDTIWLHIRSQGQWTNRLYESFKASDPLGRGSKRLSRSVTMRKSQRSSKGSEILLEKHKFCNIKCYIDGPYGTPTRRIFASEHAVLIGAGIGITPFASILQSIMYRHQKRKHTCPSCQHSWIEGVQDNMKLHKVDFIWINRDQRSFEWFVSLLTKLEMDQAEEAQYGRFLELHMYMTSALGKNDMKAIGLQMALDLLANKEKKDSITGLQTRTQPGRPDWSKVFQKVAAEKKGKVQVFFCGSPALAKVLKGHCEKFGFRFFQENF
Put plainly: NOX5 inhibition assay (L-012), HEK293 cells stably overexpressing human NOX5. Type of series: cell-based. The conditions noted are these: HEK293-hNOX5, PMA stimulated. The procedure:
The synthetic gene hNOX5 (Accession: Q96PH1) is cloned into pcDNA3.1_Zeo. […] The final construct is verified by sequencing.
Evaluation of the NOX4 inhibitors on NOX5 activity is assessed in HEK293 cells stably overexpressing human NOX5 (hNOX5).
Cells are seeded in 384 well plates over-night. […] Cells are then stimulated with PMA at 0.1 μM to induce NOX5-dependent ROS production. […] Luminescence is measured with an PHERAstar multimode reader.

Another series concerns human hepatocytes. Put plainly: Evaluation of hepatocyte clearance (metabolic stability). Type of series: in vitro ADME. Particulars: 1 μM test compound, 5% human serum, Table 3. Here is the method:
The metabolic degradation of the test compound is assayed in a hepatocyte suspension. Hepatocytes (cryopreserved) are incubated in Dulbecco's modified eagle medium (supplemented with […] glucagon/500 mL, 2.5 mg insulin/500 mL and 3.75 mg/500 mL hydrocortisone) containing 5% human serum.
Following a 30 min preincubation in an incubator (37° C., 10% CO2) 5 μl of test compound solution (80 μM; from 2 mM in DMSO stock solution diluted 1:25 with medium) are added into 395 μl hepatocyte suspension (cell density in the range 0.25-5 Mio cells/mL, typically 1 Mio cells/mL; final concentration of test compound 1 μM, final DMSO concentration 0.05%).
The cells are incubated for six hours (incubator, orbital shaker) and samples (25 μl) are taken at 0, 0.5, 1, 2, 4 and 6 hours. Samples are transferred into acetonitrile and pelleted by centrifugation (5 min). The supernatant is transferred to a new 96-deepwell plate, evaporated under nitrogen and resuspended.
Decline of Parent Compound is Analyzed by HPLC-MS/MS.
CLint is Calculated as Follows:
CL_[…]=Dose/AUC=(C0/CD)/(AUD+clast/k)×1000/60. • C0: initial concentration in the incubation [μM], CD: cell density of vital cells [10^6 cells/mL], AUD: area under the data [μM×h], clast: concentration of last data point [μM], • k: slope of the regression line for parent decline [h-1].
The calculated in vitro hepatic intrinsic clearance can be scaled up to the intrinsic in vivo hepatic clearance and used to predict hepatic in vivo blood clearance (CL) by the use of a liver model (well stirred model).
CL_[…]_INVIVO[ml/min/kg]=(CL_[…][μL/min/10^6 cells]×hepatocellularity[10^6 cells/g liver]×liver factor[g/kg bodyweight])/1000
CL[ml/min/kg]=CL_[…]_INVIVO[ml/min/kg]×hepatic blood flow[ml/min/kg]/(CL_[…]_INVIVO[ml/min/kg]+hepatic blood flow[ml/min/kg])

Broadly, the IC50 is the concentration needed to halve the response being measured. Higher therefore signals a need for much substance. Consider `O=c1c2scnc2nc(SCc2ccc(F)cc2F)n1-c1cnc(O)c(F)c1` [Example 38], for which, at human NOX5 (hNOX5), the IC50 was above 100 µM. Further, the “Qh [%]” value in the series with human hepatocytes is 11%.

On human NOX5 (hNOX5), `O=c1c2scnc2nc(SCc2ccc(Cl)cc2Cl)n1-c1cnc(O)c(F)c1` [Example 39] displayed an IC50 of 47.9 µM. In the series on human hepatocytes, the “Qh [%]” value turned out to be 26%.

`O=c1c2scnc2nc(SCc2c(F)cc(F)cc2Cl)n1-c1cnc(O)c(F)c1` [Example 41] returned an IC50 against human NOX5 (hNOX5) of 35.8 µM. In addition, the “Qh [%]” value in the series with human hepatocytes came out at 26%.

On to `O=c1c2scnc2nc(SCc2ccc(C(F)(F)F)cc2F)n1-c1cnc(O)c(F)c1` [Example 42], for which the IC50 against human NOX5 (hNOX5) worked out at 46.8 µM. In addition, the “Qh [%]” value in the series with human hepatocytes is reported as 14%.

Regarding `Cc1cc(F)cc(C)c1CSc1nc2ncsc2c(=O)n1-c1cnc(O)c(F)c1` [Example 43], the IC50 on human NOX5 (hNOX5) is above 100 µM. In the series with human hepatocytes, the “Qh [%]” value is reported as 37%.

For the compound `O=c1c2scnc2nc(SCc2ccc(F)cc2Br)n1-c1cnc(O)c(F)c1` [Example 44], the IC50 against human NOX5 (hNOX5) stood at 68.1 µM. Further, the “Qh [%]” value with human hepatocytes worked out at 29%.

With `O=c1c2scnc2nc(SCc2c(F)ccc(F)c2F)n1-c1cnc(O)c(F)c1` [Example 45], the midpoint of inhibition against human NOX5 (hNOX5), the IC50, lay at 79 µM. Moreover, the “Qh [%]” value in the series on human hepatocytes is on record as 23%.

On human NOX5 (hNOX5), `O=c1c2scnc2nc(SCc2ccc(C(F)(F)F)cc2Cl)n1-c1cnc(O)c(F)c1` [Example 46] displayed a half-inhibitory concentration (IC50) of 44.7 µM. The “Qh [%]” value in the series with human hepatocytes is 21%.

As to `N#Cc1cc(-n2c(SCc3c(F)cc(F)cc3F)nc3ncsc3c2=O)cnc1O` [Example 47, 2-Hydroxy-5-(7-oxo-5-((2,4,6-trifluorobenzyl)thio)thiazolo[4,5-d]pyrimidin-6(7H)-yl)-nicotinonitrile], on human NOX5 (hNOX5), the IC50 was above 100 µM. The “Qh [%]” value in the series on human hepatocytes is reported as 15%.

On human NOX5 (hNOX5), `O=c1c2scnc2nc(SCc2c(F)cc(F)cc2F)n1-c1cnc(O)c(Cl)c1` [Example 48, 6-(5-Chloro-6-hydroxypyridin-3-yl)-5-((2,4,6-trifluorobenzyl)thio)thiazolo[4,5-d]pyri-midin-7(6H)-one] yielded an IC50 above 100 µM. Also, the “Qh [%]” value in the series on human hepatocytes turned out to be 22%.

For the compound `O=c1c2scnc2nc(SCc2c(F)cc(F)cc2F)n1-c1cnc(O)cc1F` [Example 49, 6-(4-Fluoro-6-hydroxypyridin-3-yl)-5-((2,4,6-trifluorobenzyl)thio)thiazolo[4,5-d]pyrimidin-7(6H)-one], at human NOX5 (hNOX5), the half-inhibitory concentration (IC50) is above 100 µM. Also, the “Qh [%]” value in the series on human hepatocytes worked out at 25%.

As for `O=c1c2scnc2nc(SCc2c(F)cc(F)cc2F)n1-c1ccc(O)nc1F` [Example 50, 6-(2-Fluoro-6-hydroxypyridin-3-yl)-5-((2,4,6-trifluorobenzyl)thio)thiazolo[4,5-d]-pyrimidin-7(6H)-one], the IC50 against human NOX5 (hNOX5) was found to be 60.2 µM. Also, the “Qh [%]” value in the series on human hepatocytes is reported as 19%.

At human NOX5 (hNOX5), `O=c1c2scnc2nc(SCc2c(F)cc(F)cc2F)n1-c1cc(F)c(O)nc1F` [Example 51, 6-(2,5-Difluoro-6-hydroxypyridin-3-yl)-5-((2,4,6-trifluorobenzyl)thio)thiazolo[4,5-d]-pyrimidin-7(6H)-one] had an IC50 of 59.4 µM. In the series on human hepatocytes, the “Qh [%]” value is 10%.

On to `O=c1c2scnc2nc(SCc2c(F)cc(F)cc2F)n1-c1cnc(O)c(F)c1F` [Example 52, 6-(4,5-Difluoro-6-hydroxypyridin-3-yl)-5-((2,4,6-trifluorobenzyl)thio)thiazolo[4,5-d]-pyrimidin-7(6H)-one], for which, on human NOX5 (hNOX5), inhibition was half-maximal at 38.9 µM (IC50). Moreover, the “Qh [%]” value in the series on human hepatocytes was found to be 20%.

On human NOX5 (hNOX5), `O=c1c2scnc2nc(SCc2ccc(Cl)cc2F)n1-c1cnc(O)nc1` [Example 53, 5-((4-Chloro-2-fluorobenzyl)thio)-6-(2-hydroxypyrimidin-5-yl)thiazolo[4,5-d]pyrimidin-7(6H)-one] came in with an IC50 above 100 µM. For the same compound, the “Qh [%]” value with human hepatocytes turned out to be 13%.

Consider `Cc1cc(Cl)ccc1CSc1nc2ncsc2c(=O)n1-c1cnc(O)nc1` [Example 54], for which, on human NOX5 (hNOX5), the IC50 amounted to 47.6 µM. In addition, in the series on human hepatocytes, the “Qh [%]” value was 33%.

In turn, `Cc1cc(F)cc(C)c1CSc1nc2ncsc2c(=O)n1-c1cnc(O)nc1` [Example 55] showed an IC50 against human NOX5 (hNOX5) of 85.8 µM. For the same compound, in the series on human hepatocytes, the “Qh [%]” value was 15%.

With `O=c1c2scnc2nc(SCc2ccc(Cl)cc2)n1-c1cnc(O)nc1` [Example 56], the half-inhibitory concentration (IC50) against human NOX5 (hNOX5) is above 100 µM. In the series with human hepatocytes, the “Qh [%]” value is below 4%.

In turn, `O=c1c2scnc2nc(SCc2ccc(C(F)(F)F)cc2F)n1-c1cnc(O)nc1` [Example 57] came in with an IC50 against human NOX5 (hNOX5) above 100 µM. Moreover, the “Qh [%]” value with human hepatocytes is given as 7%.

At human NOX5 (hNOX5), `Cc1cc(F)ccc1CSc1nc2ncsc2c(=O)n1-c1cnc(O)nc1` [Example 58] returned an IC50 above 100 µM. Further, the “Qh [%]” value in the series on human hepatocytes is on record as 19%.

At human NOX5 (hNOX5), `O=c1c2scnc2nc(SCc2c(F)cc(F)cc2F)n1-c1cnc(O)nc1` [Example 59] displayed an IC50 above 100 µM. Further, the “Qh [%]” value in the series on human hepatocytes is recorded as below 4%.

The compound `O=c1c2scnc2nc(SCc2ccc(C(F)(F)F)cc2)n1-c1cnc(O)nc1` [Example 60] gave an IC50 against human NOX5 (hNOX5) above 100 µM. For the same compound, in the series with human hepatocytes, the “Qh [%]” value stood at 8%.

Consider `O=c1c2scnc2nc(SCc2ccc(Cl)cc2F)n1-c1ccc(O)nn1` [Example 61, 5-((4-Chloro-2-fluorobenzyl)thio)-6-(6-hydroxypyridazin-3-yl)thiazolo[4,5-d]pyrimidin-7(6H)-one], for which, on human NOX5 (hNOX5), the IC50 was above 100 µM. Further, in the series with human hepatocytes, the “Qh [%]” value is 55%.

Take `Cc1cc(Cl)ccc1CSc1nc2ncsc2c(=O)n1-c1ccc(O)nn1` [Example 62]: the half-inhibitory concentration (IC50) at human NOX5 (hNOX5) was above 100 µM. Moreover, the “Qh [%]” value in the series with human hepatocytes is listed as 58%.

`O=c1c2scnc2nc(SCc2ccc(Cl)cc2)n1-c1ccc(O)nn1` [Example 64] had an IC50 at human NOX5 (hNOX5) above 100 µM. Moreover, the “Qh [%]” value in the series with human hepatocytes is reported as 47%.

The compound `O=c1c2scnc2nc(SCc2ccc(C(F)(F)F)cc2F)n1-c1ccc(O)nn1` [Example 65] yielded an IC50 against human NOX5 (hNOX5) above 100 µM. For the same compound, the “Qh [%]” value in the series on human hepatocytes is reported as 50%.

On to `O=c1c2scnc2nc(SCc2ccc(C(F)(F)F)cc2)n1-c1ccc(O)nn1` [Example 66], for which the half-inhibitory concentration (IC50) against human NOX5 (hNOX5) was found to be 74.8 µM. In the series with human hepatocytes, the “Qh [%]” value is given as 40%.

`O=c1c2scnc2nc(SCc2c(F)cc(F)cc2F)n1-c1ccc(O)nn1` [Example 67] displayed an IC50 on human NOX5 (hNOX5) above 100 µM. For the same compound, the “Qh [%]” value in the series with human hepatocytes came to 37%.

As for `O=c1c2scnc2nc(SCc2c(F)cc(F)cc2F)n1-c1cnc(O)cn1` [Example 69, 6-(5-Hydroxypyrazin-2-yl)-5-((2,4,6-trifluorobenzyl)thio)thiazolo[4,5-d]pyrimidin-7(6H)-one], the IC50 against human NOX5 (hNOX5) was above 100 µM. Moreover, in the series on human hepatocytes, the “Qh [%]” value is reported as below 4%.
